biological target: T1, human CCR6 (Homo sapiens, UniProt P51684); assay: Human CCR6-CRE reporter assay; assay type: cell-based; set-up: The second construct contained the open reading frame of human CCR6 in the pUNO1 backbone; host or cells: 293FT cells; details: relative -Log IC50; 293FT cells transfected with human CCR6 and CRE-luciferase reporter; 6 μM Forskolin, 6 nM CCL20; 5 h
T1 sequence (P51684 1-374): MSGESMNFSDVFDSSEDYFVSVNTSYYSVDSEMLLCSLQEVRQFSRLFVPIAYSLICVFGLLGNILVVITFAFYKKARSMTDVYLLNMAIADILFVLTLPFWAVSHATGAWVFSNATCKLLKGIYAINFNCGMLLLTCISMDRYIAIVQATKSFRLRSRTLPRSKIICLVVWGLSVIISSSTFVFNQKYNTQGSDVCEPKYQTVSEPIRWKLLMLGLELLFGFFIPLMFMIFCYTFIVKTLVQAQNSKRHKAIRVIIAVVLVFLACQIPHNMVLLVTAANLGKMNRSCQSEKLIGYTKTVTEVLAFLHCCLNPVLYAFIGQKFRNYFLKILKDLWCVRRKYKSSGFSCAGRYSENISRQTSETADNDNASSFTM
Protocol: Human CCR6-CRE Reporter Assay
293FT cells were transfected with 2 constructs using TransIT-293 (Mirus). The first construct (pGL4.29, Promega) expressed the luciferase reporter gene luc2P in response to the binding of cAMP-induced CREB to the CREelement in its promoter. The second construct contained the open reading frame of human CCR6 in the pUNO1 backbone under the control of an enhanced CMV promoter (InVivoGen). 48 h after transfection, cells were harvested and diluted to 750,000 cells/ml in culture medium (DMEM, 10% FBS, 1× pen/strep (Gibco 15140)). Compounds were 2.5-fold serially diluted in DMSO. Further dilutions were made in assay medium (DMEM, 10% FBS, 1× pen/strep, 6 μM Forskolin, 6 nM CCL20). 4 μl of the compound solution was added to a white MW384 plate, followed by 20 μl of the cell suspension. Final DMSO concentration in the assay was 0.1%. The MW384 plate was placed in an incubator at 37° C., 5% CO2 for 5 h. Luciferase activity was determined by addition of 24 μl of a 2.5× diluted BriteLite luciferase solution (Perkin Elmer), followed by luminescence measurement using a VICTOR Plate reader (Perkin Elmer). […] The relative −Log IC50 was determined with GraphPad Prism 9 using a four-parameter dose-response model.

| SMILES | IC50 |
| --- | --- |
| N#Cc1cnc2ccc(-c3ccc(S(=O)(=O)N4CCC(Nc5ccc(S(F)(F)(F)(F)F)cc5)CC4)c(Cl)c3)cn12 [Example 80, 6-{3-chloro-4-[(4-{[4-(pentafluoro-λ^6-sulfanyl)phenyl]Amino}piperidin-1-yl)sulfonyl]phenyl}imidazo[1,2-a]pyridine-3-carbonitrile] | 2000 nM |
| N=S(=O)(c1ccc(-c2ccn3ncnc3c2)cc1)[C@H]1CC[C@H](Nc2ccc(S(F)(F)(F)(F)F)cc2)CC1 (stereo partly drawn) [Example 94, [trans-4-{[4-(pentafluoro-λ^6-sulfanyl)phenyl]Amino}cyclohexyl](4-{[1,2,4]triazolo[1,5-a]pyridin-7-yl}phenyl)(imino)-λ^6-sulfanone] | 501 nM |
| O=c1cc(-c2ccc(S(=O)(=O)[C@H]3CC[C@H](Nc4ccc(S(F)(F)(F)(F)F)cc4)CC3)cc2)cc[nH]1 [Example 52, 4-(4-{[trans-4-{[4-(pentafluoro-λ^6-sulfanyl)phenyl]Amino}cyclohexyl]sulfonyl}phenyl)-1,2-dihydropyridin-2-one] | 39.8 nM |
| O=C1Cc2ccc(-c3ccc(S(=O)(=O)[C@H]4CC[C@H](Nc5ccc(S(F)(F)(F)(F)F)cc5)CC4)cc3)cc2CN1 [Example 53, 7-(4-{[trans-4-{[4-(pentafluoro-λ^6-sulfanyl)phenyl]Amino}cyclohexyl]sulfonyl}phenyl)-1,2,3,4-tetrahydroisoquinolin-3-one] | 79.4 nM |
| N#Cc1cnc2ccc(-c3ccc(S(=O)(=O)N4CCC(Nc5ccc(S(F)(F)(F)(F)F)cc5)CC4)cc3F)cn12 [Example 71, 6-{2-fluoro-4-[(4-{[4-(pentafluoro-λ^6-sulfanyl)phenyl]Amino}piperidin-1-yl)sulfonyl]phenyl}imidazo[1,2-a]pyridine-3-carbonitrile] | 1000 nM |
| Cc1cn2cc(-c3ccc(S(=N)(=O)[C@H]4CC[C@H](Nc5ccc(S(F)(F)(F)(F)F)cc5)CC4)cc3)ncc2n1 (stereo partly drawn) [Example 103, (4-{2-methylimidazo[1,2-a]pyrazin-6-yl}phenyl)[trans-4-{[4-(pentafluoro-λ^6-sulfanyl)phenyl]Amino}cyclohexyl](imino)-λ^6-sulfanone] | 1260 nM |

The next lines start with the values.

| IC50 | SMILES |
| --- | --- |
| 794 nM | O=S(=O)(c1ccc(-c2ccc3nnc([C@H]4CCNC4)n3c2)cc1)N1CCC(Nc2ccc(S(F)(F)(F)(F)F)cc2)CC1 [Example 166, N-[4-(pentafluoro-λ^6-sulfanyl)phenyl]-1-(4-{3-[(3S)-pyrrolidin-3-yl]-[1,2,4]triazolo[4,3-a]pyridin-6-yl}benzenesulfonyl)piperidin-4-amine] |
| 50.1 nM | O=C(NC1CC1)c1cccc(-c2ccc(S(=O)(=O)[C@H]3CC[C@H](Nc4ccc(S(F)(F)(F)(F)F)cc4)CC3)cc2)c1 [Example 144, N-cyclopropyl-4′-{[trans-4-{[4-(pentafluoro-λ^6-sulfanyl)phenyl]amino}cyclohexyl]sulfonyl}-[1,1′-biphenyl]-3-carboxamide] |
| 316 nM | CNC(=O)c1cc(-c2ccc(S(=N)(=O)[C@H]3CC[C@H](Nc4ccc(S(F)(F)(F)(F)F)cc4)CC3)cc2)ccn1 (stereo partly drawn) [Example 110, N-methyl-4-(4-{[trans-4-{[4-(pentafluoro-λ^6-sulfanyl)phenyl]Amino}cyclohexyl]sulfonimidoyl}phenyl)pyridine-2-carboxamide] |
| 794 nM | O=S(=O)(c1ccc(-c2cc3cc[nH]c3cn2)cc1)[C@H]1CC[C@H](Nc2ccc(S(F)(F)(F)(F)F)cc2)CC1 [Example 146, 4-(pentafluoro-λ^6-sulfanyl)-N-[trans-4-(4-{1H-pyrrolo[2,3-c]pyridin-5-yl}benzenesulfonyl)cyclohexyl]aniline] |
| 100 nM | CC(C)c1nnc2ccc(-c3ccc(S(=N)(=O)[C@H]4CC[C@H](Nc5ccc(S(F)(F)(F)(F)F)cn5)CC4)cc3)cn12 (stereo partly drawn) [Example 171, {4-[3-(propan-2-yl)-[1,2,4]triazolo[4,3-a]pyridin-6-yl]phenyl}[trans-4-{[5-(pentafluoro-λ^6-sulfanyl)pyridin-2-yl]amino}cyclohexyl](imino)-λ^6-sulfanone] |
